Test results reported in patent publication US20110166066A1, “CATESTATIN (CST) AND ITS VARIANTS FOR TREATMENT OF CARDIOVASCULAR AND METABOLIC DISORDERS” (priority 2008, published 2011).
Read-outs that look alike come from different tables or passages of the source. No end group written: not given here.

Experiments:
ECs = experiment: In-vitro angiogenic effects on ECs (migration, proliferation, matrigel assay); type: cell-based
GSK-3β Ser9 = experiment: Immunoblot of phosphorylated GSK-3β in WT-CST perfused hearts; set-up: species or system rat; conditions: 110 nM
Method: Cardiac signaling—Hearts were perfused with or without 110 nM WT-Cts as before. At the end of experiment hearts were snap frozen under liquid nitrogen and homogenized with 1 ml of ice cold 0.2 M sucrose, Tris maleate (pH 7.0) buffer supplemented with 2 mM EDTA, pH 8.0, 1 mM sodium orthovanadate, 10 mM sodium pyrophosphate, 1 mM phenylmethylsulfonyl fluoride, 10 μg/ml leupeptin, 10 μg/ml aprotinin and 0.1 mM 3-isobutyl-1-methylxanthine. SR membrane fractions were isolated from cytosolic proteins as described before (27). Protein content was determined by Bradford assay (BIO-RAD) and 100 μg of cytosolic protein was subjected to SDS-PAGE immunoblot analysis for phosphorylated-ERK, total ERK (P-ERK and T-ERK; Santa Cruz, Calif.). […]
Statistics—Data are expressed as the mean±SEM. Curve fitting was accomplished in the program Kaleidagraph (Synergy Software, Reading, Pa.). […] For analysis of phosphorylated proteins, levels were quantified using Bio-Rad QuantifyOne and volumes of phosphorylated proteins were divided by the levels of non-phosphorylated proteins to calculate fold activation. Stimulation of protein activity was expressed as fold increase over vehicle-treated control. The means and S.E.M. were calculated for each treatment. […]

[1] = test system: Langendorff perfused rat heart; experiment: Langendorff perfused rat heart, basal conditions: concentration-response of catestatin peptides
Description: Animals-Male Wistar rats (Morini, Bologna, Italy S.P.A.) weighing 180-250 g were housed (three per cage) in a ventilated cage rack system under standard conditions. Animals had food and water access ad libitum. The investigation conforms to the Guide for the Care and Use of Laboratory Animals, according to NIH Publication No. 85-23, revised 1996. Isolated heart preparation-Rats were anesthetized with ethyl carbamate (2 g/Kg rat, i.p.), the hearts rapidly excised and then transferred in ice-cold buffered Krebs-Henseleit solution (KHs). As previously described (23), the aorta was immediately cannulated with a glass cannula and connected to Langendorff apparatus to start perfusion at constant flow-rate (12 ml/min). Briefly, the apex of the left ventricle (LV) was pierced to avoid fluid accumulation. A water-filled latex balloon, connected to a pressure transducer ([…], Inc. USA), was inserted through mitral valve into the LV allowing isovolumic contractions and continuous mechanical parameters recording. Another pressure transducer located just above the aorta recorded coronary pressure (CP). […] Hemodynamic parameters were assessed using a PowerLab data acquisition system and analysed using Chart software (both purchased by ADInstruments, Basile, Italy). […] Curve fitting was accomplished in the program Kaleidagraph (Synergy Software, Reading, Pa.). Peptide EC50 and IC50 values were interpolated as the concentration that achieved 50% stimulation and inhibition, respectively. For analysis of phosphorylated proteins, levels were quantified using Bio-Rad QuantifyOne and volumes of phosphorylated proteins were divided by the levels of non-phosphorylated proteins to calculate fold activation. Stimulation of protein activity was expressed as fold increase over vehicle-treated control. The means and S.E.M. were calculated for each treatment. Multiple comparisons were made using either one-way ANOVA followed by Bonferroni's post-hoc test or two-way ANOVA. Statistical significance was concluded at p<0.05. Statistics were computed with the program InStat (GraphPad Software, Inc., San Diego, Calif.).

[2] = test system: Langendorff perfused rat heart; experiment: Isoproterenol stimulated Langendorff heart preparations; conditions: ISO 0.1 nM to 1 μM; WT-CST 33 and 110 nM, G364S-CST 200 nM, P370L-CST 165 nM

SSMKLSFRARAYGFRGPGPQL [WT-CST, catestatin]
Concentration of maximal function (ECs): 1 nM
Direct effects on ECs (ECs): exerts several direct effects on ECs including EC migration and proliferation
MAPK signaling pathway in ECs (ECs): induced activation of MAPK signaling pathway
Angiogenic effects at higher concentration (ECs; 100 nM, EC migration, proliferation, in-vitro matrigel assay): angiogenic effects were still observed
Phosphorylation of GSK-3β at Ser9 (GSK-3β Ser9): inhibited
EC50 [1]: ~0.0125 µM
Time the LVP effect remained stable [1]: 15 min
Time to maximum effect on LVP after administration [1]: 5 min
IC50 ([1]; 11 to 200 nM, measured at 10 min, read-out: +(LVdP/dt)max inhibition IC50): ~0.072 µM
EC50 ([1]; 11 to 200 nM, measured at 10 min, read-out: T/−t increment EC50): 0.06 µM
IC50 ([1]; 11 to 200 nM, measured at 10 min, read-out: −(LVdP/dt)max decrement IC50): 0.074 µM
Concentration of maximum CP response ([1]; basal): 200 nM
Concentration of maximum HR increase ([1]; basal): 165 nM
Effect on CP (coronary pressure) ([1]; basal): dose-dependent increment
Activity rank order ([1]; basal conditions, Table 2): Activity: WT-CST > P370L-CST > G364S-CST
Inotropism ([1]; basal conditions, Table 2): Negative
Lusitropism ([1]; basal conditions, Table 2): Negative
Effect on HR ([1]; basal, WT-Cts significant at 33 nM): significantly increased
Desensitization on repetitive exposure ([1]; single concentration 33 nM, repeated): absence of desensitization
ISO-induced stimulation of LVP (concentration-response) [2]: significantly inhibited
